Experimental data published in patent publication US8440645B2, “Ceramide production promoter” (Kao Corporation, priority 2008, dated 2013).
Where a name gives a salt, the structure may show the parent alone.

Legend:
[1] = tested on: Normal human epidermal keratinocytes (NHEK(F)); experiment: Ceramide production promotion test (Test Example 3); assay type: cell-based; conditions: 5 mM solution added in an amount of 1%, 3 days culture
Method: Normal human epidermal keratinocytes (NHEK(F)) were seeded into an EpiLife-KG2 (KURABO INDUSTRIES LTD.) 6-well Plate and cultured until the cells became confluent. […] Culture was performed for 3 days, and the cells in each well were separately collected. Lipids were extracted from the collected cells by a Bligh and Dyer method. The extracts were dried with nitrogen, and the residues were redissolved in chloroform and methanol, to thereby prepare lipid samples. Note that the amounts of proteins were determined by the BCA method. The extracted lipids were subjected to horizontal development twice by using thin layer chromatography (TLC) and chloroform:methanol:acetic acid=190:9:1. The resultant were sprayed with a copper sulfate solution and heated on a hot plate, to thereby detect ceramide. Thereafter, the resultant values were divided by respective protein amounts to calculate amounts of ceramide.

[2] = tested on: Normal human epidermal keratinocytes (NHEK(F)); experiment: Ceramide production promotion test (Test Example 1); assay type: cell-based; conditions: 3 days culture, control (10% ethanol) defined as 1
Method: Normal human epidermal keratinocytes (NHEK(F)) were seeded into an EpiLife-KG2 (KURABO INDUSTRIES LTD.) 6-well Plate and cultured until the cells became confluent. Thereafter, in replacement of EpiLife-KG2 (containing no proliferation addition factor), Compound 1 (5 mM) and Compound 2 (1 mM) prepared in Production Examples or a control solution (10% ethanol) was added thereto in an amount of 1%. Culture was performed for 3 days, and the cells in each well were separately collected.
Lipids were extracted from the collected cells by Bligh and Dyer method. The extracts were dried with nitrogen, and the residues were redissolved in chloroform and methanol, to thereby prepare lipid samples. Note that the amounts of proteins were determined by a BCA method.
The extracted lipids were subjected to horizontal development twice by using thin layer chromatography (TLC) and chloroform:methanol:acetic acid=190:9:1. The resultant was sprayed with a copper sulfate solution and heated on a hot plate, to thereby detect ceramide. Thereafter, the resultant values were divided by respective protein amounts to calculate amounts of ceramide. […] The numerical values shown in the table are relative values when the amount of ceramide in the control is defined as 1.

[3] = tested on: human horny layer; experiment: Test on effect of improving moisture content in human horny layer (Test Example 2); assay type: in vivo; conditions: 1% Compound 1 solution applied to cheek twice a day, five days a week, 4 weeks; ten men; P<0.1 t-test
Method: Ten men (25 to 40-year-old: mean age 30.5)
A solution containing 1% Compound 1 and a placebo solution containing only a solvent were used as application samples. The solvent used was 95.0% ethanol:1,3-BG:purified water=20:10:70.
The samples were applied twice a day and five days a week. The amount of each sample per application was set to two drops (about 100 μl) from an eye drop bottle.
The test was performed by applying the sample containing 1% Compound 1 to one side of the cheek and the placebo solution to the other side for 4 weeks, followed by measuring moisture contents in the horny layer using a Corneometer. The measurement was performed before the application and after the 4-week application at the same regions on the cheek, and the result of the 1% Compound 1-containing sample side was compared with that of the placebo side.

[4] = control (10% ethanol) defined as 1
[5] = control (50% ethanol) defined as 1

| Compound | Amount of ceramide (relative value) [1, 4] | further results |
| --- | --- | --- |
| CCCCCCCCCCCCCCOCC(O)COP(=O)(O)O (centres unmarked) [Compound 4, 1-Tetradecylglycerol-3-phosphate monoarginine salt] | 4.3 | – |
| CCCCCC(C)CCCCCCCCCCCOCC(O)COP(=O)([O-])[O-].[K+].[K+] (centres unmarked) [Compound 8, 1-(12-Methylheptadecyl)glycerol-3-phosphate dipotassium salt] | 10.4 | – |
| CCCCOCC(COCCCCCCCCCCCCCCCC(C)C)OP(=O)([O-])[O-].[Na+].[Na+] (centres unmarked) [Compound 2, 1-isostearyl-3-butylglycerol-2-phosphate sodium salt] | – | Amount of ceramide (relative value) ([2]; 1 mM solution added in an amount of 1%): 1.5 |
| CCCCCCCCCC(CCCCCCC)COCC(O)COP(=O)(O)O (centres unmarked) [Compound 6, 1-(2-Heptylundecyl)glycerol-3-phosphate monoarginine salt] | 4.0 | – |
| 1-Isostearylglycerol-3-phosphate monoarginine salt [Compound 7] | 18.9 | – |
| CCCCCCCCCCCCCCCCCCOCC(O)COP(=O)([O-])[O-].[Na+].[Na+] (centres unmarked) [Compound 5, 1-Octadecylglycerol-3-phosphate disodium salt] | – | Amount of ceramide (relative value) [1, 5]: 2.6 |
| CCCCCCCCCCC(CCCCCCCC)COCC(O)COP(=O)(O)O (centres unmarked) [Compound 9, 1-(2-Octyldodecyl)glycerol-3-phosphate monoarginine salt] | 4.1 | – |
| 1-n-tetradecyl-3-ethylglycerol-2-phosphate arginine salt [Compound 1] | – | Moisture content in the horny layer (Corneometer) compared with placebo-applied side [3]: increase; Amount of ceramide (relative value) ([2]; 5 mM solution added in an amount of 1%): 3.3 |
| CCCCCCCCCCCCOCC(O)COP(=O)([O-])[O-].[Na+].[Na+] (centres unmarked) [Compound 3, 1-Dodecylglycerol-3-phosphate disodium salt] | 3.1 | – |
| monoalkyl (having an average alkyl chain length of C13) phosphate potassium salt [Comparative Compound 1, reference compound] | – | Amount of ceramide (relative value) [1, 5]: 0.6 |
